Laboratory results reported in patent US20250313563A1, “GLYCOGEN SYNTHASE KINASE 3 INHIBITORS AND USES THEREOF” (The Broad Institute, Inc., priority 2022, published 2025).
Read-outs that look alike come from different tables or passages of the source.

Columns and labels:
[1] = molecular target: GSK3α (GST-full length GSK3α) (Homo sapiens (Human), UniProt P49840); test: GSK3α TR-FRET kinase assay; assay type: biochemical
In short: (§1)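 Compound was preincubated 30 min with 1 nM GST-GSK3 enzyme. Reaction ran 100 min at ambient temperature in Tris pH 7.5/MgCl2 with 200 nM biotinylated pS645-glycogen synthase 631-650 peptide and ATP (4 μM GSK3α, 2 μM GSK3b, or 1 mM). The EDTA-stopped reaction was read by TR-FRET (Tb-anti-pSer641/streptavidin-d2), and IC50s were fitted.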

[2] = molecular target: GSK3b (GST-full length GSK3b) (Homo sapiens (Human), UniProt P49841); test: GSK3b TR-FRET kinase assay; assay type: biochemical
In short: as §1

[3] = 1 nM GSK3α, 4 μM ATP, 30 minute preincubation, Table 16, read-out: GSK3-A TR-FRET BIOCHEMICAL (TR-FRET)
[4] = GSK3-A (TR-FRET 1 mM ATP), GMean, IC50, 1 mM ATP, geometric mean
[5] = 1 nM GSK3b, 2 μM ATP, 30 minute preincubation, Table 16, read-out: GSK3-B TR-FRET BIOCHEMICAL (TR-FRET)
[6] = GSK3-B (TR-FRET 1 mM ATP), GMean, IC50, 1 mM ATP, geometric mean
[7] = 1 nM GSK3α, 4 μM ATP, 30 minute preincubation, read-out: GSK3-A TR-FRET BIOCHEMICAL (TR-FRET), IC50
[8] = 1 nM GSK3b, 2 μM ATP, 30 minute preincubation, read-out: GSK3-B TR-FRET BIOCHEMICAL (TR-FRET), IC50
[9] = read-out: GSK3-A (TR-FRET 1 mM ATP), GMean, IC50, 1 mM ATP, geometric mean
[10] = read-out: GSK3-B (TR-FRET 1 mM ATP), GMean, IC50, 1 mM ATP, geometric mean
[11] = 1 nM GSK3α, 4 μM ATP, 30 minute preincubation, Table 16, read-out: GSK3-A TR-FRET BIOCHEMICAL (TR-FRET), IC50
[12] = 1 nM GSK3b, 2 μM ATP, 30 minute preincubation, Table 16, read-out: GSK3-B TR-FRET BIOCHEMICAL (TR-FRET), IC50

Chain of GSK3b (GST-full length GSK3b) (P49841 whole entry): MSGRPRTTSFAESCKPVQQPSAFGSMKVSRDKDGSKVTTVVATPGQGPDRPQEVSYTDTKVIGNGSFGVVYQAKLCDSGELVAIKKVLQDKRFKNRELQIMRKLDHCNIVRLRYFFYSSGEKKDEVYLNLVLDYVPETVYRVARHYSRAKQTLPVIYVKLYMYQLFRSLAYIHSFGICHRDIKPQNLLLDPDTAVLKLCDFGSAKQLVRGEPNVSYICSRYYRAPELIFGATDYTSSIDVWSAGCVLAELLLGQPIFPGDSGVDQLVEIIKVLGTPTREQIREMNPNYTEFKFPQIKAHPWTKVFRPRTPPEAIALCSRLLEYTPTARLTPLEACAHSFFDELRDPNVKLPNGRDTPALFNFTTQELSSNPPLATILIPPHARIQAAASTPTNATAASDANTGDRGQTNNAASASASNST
Chain of GSK3α (GST-full length GSK3α) (P49840 whole entry): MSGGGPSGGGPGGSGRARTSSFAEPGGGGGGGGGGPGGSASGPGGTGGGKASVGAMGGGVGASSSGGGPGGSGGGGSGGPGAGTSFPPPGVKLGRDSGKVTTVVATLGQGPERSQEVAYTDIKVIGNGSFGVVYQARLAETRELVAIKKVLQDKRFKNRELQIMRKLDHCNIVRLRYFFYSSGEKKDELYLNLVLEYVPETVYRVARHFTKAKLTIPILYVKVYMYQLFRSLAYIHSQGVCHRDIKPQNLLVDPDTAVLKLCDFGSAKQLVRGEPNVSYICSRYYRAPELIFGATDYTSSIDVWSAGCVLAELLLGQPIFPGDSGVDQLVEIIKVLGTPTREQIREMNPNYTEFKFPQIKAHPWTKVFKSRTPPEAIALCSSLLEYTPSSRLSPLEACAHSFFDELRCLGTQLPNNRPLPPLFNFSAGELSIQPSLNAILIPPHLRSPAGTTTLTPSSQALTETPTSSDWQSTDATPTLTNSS

Row | SMILES | IC50 [1, 3] [nM] | IC50 [2, 5] [nM] | other results
1 | COc1cccc(S(=O)(=O)N2CC[C@]3(C2)C2=C(CC(C)(C)CC2=O)Nc2n[nH]cc23)c1 [Compound 943486] | ≤ 100 | ≤ 100 | –
2 | CC1(C)CC(=O)C2=C(C1)Nc1n[nH]cc1[C@]21CCN(S(=O)(=O)c2ccccc2F)C1 [Compound 943487] | – | – | IC50 [1, 7]: ≤ 100 nM; IC50 [1, 4]: ≤ 100 nM; IC50 [2, 8]: ≤ 100 nM; IC50 [2, 6]: 100 to 1000 nM
3 | CC1(C)CC(=O)C2=C(C1)Nc1n[nH]cc1[C@]21CCN(S(=O)(=O)c2cccc(F)c2)C1 [Compound 943488] | ≤ 100 | ≤ 100 | –
4 | CCC1(c2cccc(N(C)c3ccnnc3)c2)C2=C(CC(C)(C)CC2=O)Nc2n[nH]cc21 (stereo not drawn) [Compound 943492] | ≤ 100 | ≤ 100 | –
5 | CCC1(c2cccc(-c3cnnc(C)c3)c2)C2=C(CC(C)(C)NC2=O)Nc2n[nH]cc21 (stereo not drawn) [Compound 943496] | – | – | IC50 [1, 7]: ≤ 100 nM; IC50 [2, 8]: 1000 to 5000 nM
6 | CC[C@]1(c2cccc(-c3cc(C)ncc3C)c2)C2=C(CC(C)(C)CC2=O)Nc2n[nH]cc21 [Compound 943515] | 1000 to 5000 | > 5000 | –
7 | CCC1(c2cccc(-c3ccnc(C)c3C)c2)C2=C(CC(C)(C)CC2=O)Nc2n[nH]cc21 (stereo not drawn) [Compound 943517] | 100 to 1000 | > 5000 | –
8 | CC[C@]1(c2cccc(-c3ccncc3F)c2)C2=C(CC(C)(C)CC2=O)Nc2n[nH]cc21 [Compound 943519] | 100 to 1000 | 1000 to 5000 | –
9 | CCC1(c2cccc(-c3cnc(C)n3C)c2)C2=C(CC(C)(C)CC2=O)Nc2n[nH]cc21 (stereo not drawn) [Compound 943531] | ≤ 100 | 100 to 1000 | IC50 [1, 9]: 100 to 1000 nM; IC50 [2, 10]: > 5000 nM
10 | CCC1(c2cccc(-c3ncnn3C)c2)C2=C(CC(C)(C)CC2=O)Nc2n[nH]cc21 (stereo not drawn) [Compound 943532] | ≤ 100 | 100 to 1000 | –
11 | CCC1(c2cccc(-c3cncn3C)c2)C2=C(CC(C)(C)CC2=O)Nc2n[nH]cc21 (stereo not drawn) [Compound 943533] | ≤ 100 | ≤ 100 | –
12 | CCC1(c2cccc(-c3ccnc4c3CCC4)c2)C2=C(CC(C)(C)CC2=O)Nc2n[nH]cc21 (stereo not drawn) [Compound 943534] | ≤ 100 | ≤ 100 | –
13 | CCC1(c2cccc(N(C)c3cc(C)ccn3)c2)C2=C(CC(C)(C)CC2=O)Nc2n[nH]cc21 (stereo not drawn) [Compound 943537] | ≤ 100 | 100 to 1000 | –
14 | CCC1(c2cccc(-c3ccncc3CO)c2)C2=C(CC(C)(C)CC2=O)Nc2n[nH]cc21 (stereo not drawn) [Compound 943539] | ≤ 100 | ≤ 100 | –
15 | CCC1(c2cccc(-c3ccnc(CO)c3)c2)C2=C(CC(C)(C)CC2=O)Nc2n[nH]cc21 (stereo not drawn) [Compound 943540] | ≤ 100 | 100 to 1000 | –
16 | COCCN1CC2(C1)C1=C(CC(C)(C)CC1=O)Nc1n[nH]cc12 [Compound 943544] | – | – | IC50 [1, 11]: > 5000 nM; IC50 [2, 12]: > 5000 nM
17 | CC1(C)CC(=O)C2=C(C1)Nc1n[nH]cc1C21CN(CC2CCOCC2)C1 [Compound 943545] | – | – | IC50 [1, 11]: > 5000 nM; IC50 [2, 12]: > 5000 nM

Continued, in another order:

Row | IC50 [1, 3] [nM] | IC50 [2, 5] [nM] | SMILES | other results
18 | ≤ 100 | ≤ 100 | CC1(C)CC(=O)C2=C(C1)Nc1n[nH]cc1[C@]21CCN(S(=O)(=O)c2ccccc2)C1 [Compound 943485] | IC50 [1, 4]: 100 to 1000 nM; IC50 [2, 6]: 1000 to 5000 nM
19 | ≤ 100 | ≤ 100 | Cc1cccc(S(=O)(=O)N2CC[C@]3(C2)C2=C(CC(C)(C)CC2=O)Nc2n[nH]cc23)c1 [Compound 943489] | –
20 | ≤ 100 | ≤ 100 | CCC1(c2cccc(-c3ccnc(C)c3C)c2)C2=C(CC(C)(C)CC2=O)Nc2n[nH]cc21 (stereo not drawn) [Compound 943516] | IC50 [1, 9]: ≤ 100 nM; IC50 [2, 10]: 1000 to 5000 nM
21 | ≤ 100 | ≤ 100 | CCC1(c2cccc(-c3ccncc3F)c2)C2=C(CC(C)(C)CC2=O)Nc2n[nH]cc21 (stereo not drawn) [Compound 943518] | IC50 [1, 9]: ≤ 100 nM; IC50 [2, 10]: 100 to 1000 nM
22 | ≤ 100 | ≤ 100 | CCC1(c2cccc(-c3cnc4n3CCCC4)c2)C2=C(CC(C)(C)CC2=O)Nc2n[nH]cc21 (stereo not drawn) [Compound 943535] | –
23 | ≤ 100 | ≤ 100 | CCC1(c2cccc(S(=O)(=O)C3CCCCC3)c2)C2=C(CC(C)(C)CC2=O)Nc2n[nH]cc21 (stereo not drawn) [Compound 943541] | IC50 [1, 9]: 100 to 1000 nM; IC50 [2, 10]: 1000 to 5000 nM
24 | ≤ 100 | ≤ 100 | CC1(C)CC(=O)C2=C(C1)Nc1n[nH]cc1C21CN(S(=O)(=O)Cc2ccccc2)C1 [Compound 943543] | –
